Measurements published in US20070292483A1, “REDUCING MUSCLE SORENESS WITH GLUCOSAMINE COMPOSITIONS” (Stokely-Van Camp, Inc., priority 2006, published 2007).

Test: storage study of relatively neutral pH beverage compositions containing glucosamine
Assay type: physicochemical
Protocol: Special considerations in packaging, shipping, and or formulations may also be considered when delivering a targeted amount of glucosamine in the beverage compositions. As an example, shake-type beverages, such as the beverage composition provided in Table 3, are generally formulated to have a relatively neutral pH value.
Such a formulation was determined to deliver 1,500 mg of glucosamine based on results from a storage study. During the study, in which such beverages were stored for a period of 12 months at ambient (73 degrees Fahrenheit) temperature, it was determined that approximately 77% of glucosamine originally present had degraded during a 12 month storage period. Thus, information regarding the average shelf-life and/or delivery mechanisms for specific products may be utilized when formulating the beverage compositions. Such factors may include the temperature, time to consumption, packaging the compositions are stored within, among others.

| degradation rate in beverage (formulated in beverages having neutral pHs (shake-type)) | glucosamine originally present that had degraded during storage (relatively neutral pH beverage, around about 20 mg/ml glucosamine, stored 12 months at ambient (73 degrees Fahrenheit) temperature) | SMILES |
| --- | --- | --- |
| degrades at a quickened rate |  | Cl.N[C@H]1C(O)O[C@H](CO)[C@@H](O)[C@@H]1O (some centres unmarked) [Glucosamine hydrochloride, glucosamine hydrochloride] |
|  | approximately 77% | N[C@H]1C(O)O[C@H](CO)[C@@H](O)[C@@H]1O (some centres unmarked) [glucosamine] |
